Laboratory results as given in US10064838B2, “Method for treating tau-associated diseases using tetrahydropyranol derivatives” (NATIONAL TAIWAN NORMAL UNIVERSITY, priority 2016, dated 2018).

What was measured:
[1] = target: T1, ΔK280 tauRD-DsRed (Homo sapiens, UniProt P10636, DEL597-597); assay: Inhibition of ΔK280 tauRD-DsRed aggregation (DsRed fluorescence, high content analysis); format: cell-based; conditions: 8 h pretreatment, Dox 3 days, ΔK280 tauRD-DsRed 293 cells
T1 construct: tauRD: Gln^244-Glu^372 of the longest tau^441 isoform; expressed in transfected cells; host or cells: HEK-293 (Tet-On, doxycycline-induced)
Excerpt: We used human embryonic kidney HEK-293 (cultured with DMEM supplemented with 10% FBS) and neuroblastoma SH-SY5Y (cultured with DMEM F12 supplemented with 10% FBS) cells expressing a DsRed-tagged pro-aggregation mutant (ΔK280) of the C-terminal repeat domain of tau (tauRD: Gln^244-Glu^372 of the longest tau^441 isoform). The recombinant tauRD-DsRed construct was under the control of a hybrid human cytomegalovirus (CMV)/TetO2 promoter that can be induced by adding doxycycline. The Tet-On ΔK280 tauRD-DsRed 293 and SH-SY5Y cells were grown in medium containing blasticidin (5 μg/mL) and hygromycin (100 μg/mL) and were used for the following evaluation.
ΔK280 tauRD-DsRed 293 cells were seeded into 96-well plates, grown for 24 h, and pretreated with 0.1, 1, 10 μM of congo red (a known tau aggregation inhibitor), compound (A), compound (B), and compound (C) for 8 h. Then doxycycline (Dox; 1 μg/mL) was added for 3 days to induce ΔK280 tauRD-DsRed expression and DsRed fluorescence was assessed using a high content analysis (HCA) system.
The DsRed fluorescence of ΔK280 tauRD-DsRed fusion protein was used to reflect the aggregation condition of ΔK280 tauRD. Misfolding of fused DsRed occurred when ΔK280 tauRD aggregated, and thus decreasing the DsRed fluorescence. Accordingly, inhibition of ΔK280 tauRD aggregation may improve the DsRed misfolding and increase DsRed fluorescence.

[2] = Cytotoxicity in 293 cells expressing ΔK280 tauRD-DsRed fusion protein; format: cell-based; conditions: human, ΔK280 tauRD-DsRed 293 cells
[3] = MTT cytotoxicity in SH-SY5Y cells; format: cell-based; conditions: human, 24 h treatment, read-out: half maximal inhibitory concentration (IC50), cytotoxicity
Experimental: (§1) The HEK-293 cells and SH-SY5Y cells were seeded into a 48-well plate (5×10^4), grown for 24 h, and treated with 0.1 μM, 1 μM, 10 μM, 100 μM of compound (A), compound (B), or compound (C) individually for 24 h. Then 20 μL of MTT (5 mg/mL dissolved in PBS) was added for 2 h and the full wavelength microplate spectrophotometer was used for detecting the absorbance of the purple formazan at 570 nm.
(§2) As a result, the cytotoxicities of compound (A), compound (B), and compound (C) are low and not harmful to the cells.

[4] = MTT cytotoxicity in HEK-293 cells; format: cell-based; conditions: human, 24 h treatment, read-out: half maximal inhibitory concentration (IC50), cytotoxicity
Experimental: as §1, §2

[5] = system: ΔK280 tauRD-DsRed SH-SY5Y cells; assay: Neurite growth in induced ΔK280 tauRD-DsRed SH-SY5Y cells; format: cell-based, human; conditions: 10 μM, 8 h pretreatment, Dox 7 days, retinoic acid-differentiated
Experimental: ΔK280 tauRD-DsRed SH-SY5Y tauRD-DsRed cells were seeded in 6-well plate (1×10^5/well) in a medium containing all-trans retinoic acid (10 μM), grown for 24 h, and pretreated with 10 μM of congo red, compound (A), compound (B), and compound (C) for 8 h; after which, ΔK280 tauRD-DsRed expression was induced with 1 μg/mL doxycycline for 7 days. The cells were then fixed in 4% paraformaldehyde, permeabilized with 0.1% Triton X-100, blocked in 3% BSA, stained with the primary antibody anti-TUBB3 (against neuronal Class III β-tubulin) (1:1000; Convance) and with a secondary anti-rabbit Alexa Fluor® 555 antibody (1:500; Molecular Probes), and then incubated at room temperature for 3 h. Nuclei were counterstained with 4′,6-diamidino-2-phenylindole (DAPI). The total outgrowth in the untreated cells, cells treated with congo red, compound (A), compound (B), and compound (C) were assessed using MetaMorph image acquisition and analysis software.

[6] = system: ΔK280 tauRD-DsRed 293 cells; assay: ROS level (DCFH-DA, flow cytometry) in induced ΔK280 tauRD-DsRed 293 cells; format: cell-based, human; conditions: 10 μM, 8 h pretreatment, Dox 3 days
Experimental: (§3) ΔK280 tauRD-DsRed 293 cells were seeded into 12-well plates, grown for 24 h, and pretreated with 10 μM of congo red, compound (A), compound (B), and compound (C) respectively for 8 h. Then, doxycycline (1 μg/mL) was added for 3 days to induce ΔK280 tauRD-DsRed expression.
Next, uninduced cells, doxycycline-induced but compound-untreated cells, and doxycycline-induced and compound-treated cells were incubated with 2′,7′-dichlorodihydrofluorecein diacetate (DCFH-DA) in 37° C. for 30 minutes, and then washed with PBS. The excited green fluorescence intensity under 492-495/517-527 nm of excitation/emission wavelength was measured using flow cytometry (BD) to evaluate the ROS level.

[7] = system: caspase 3; assay: Caspase 3 activity (Ac-DEVD-AMC) in induced ΔK280 tauRD-DsRed 293 cells; format: cell-based, human; conditions: 10 μM, 8 h pretreatment, Dox 3 days
Experimental: as §3
In addition, the caspase 3 activity of uninduced cells, doxycycline-induced but compound-untreated cells, and doxycycline-induced and compound-treated cells were measured using Caspase 3 Assay Kit (Sigma). 10^6 cells in each group were harvested and 100 μL of lysis buffer was added, incubated on the ice for 20 minutes, and then, Ac-DEVD-AMC substrate was added into each group. The release of the fluorescent AMC was recorded under 360/460 nm of excitation/emission wavelength using an FLx800 microplate fluorescence reader (Bio-Tek). The caspase 3 activity was calculated using an AMC standard curve.

T1 sequence (P10636 with tags, fused parts or gaps isoform P10636-8 DEL280-280): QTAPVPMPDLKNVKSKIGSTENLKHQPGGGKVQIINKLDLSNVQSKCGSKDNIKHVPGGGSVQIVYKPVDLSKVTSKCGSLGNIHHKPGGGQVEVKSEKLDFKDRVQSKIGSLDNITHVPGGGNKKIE

Row | DsRed fluorescence intensity relative to untreated cells (100%) ([1]; 1-10 μM) | DsRed fluorescence intensity relative to untreated cells (100%) ([1]; 10 μM) [%] | SMILES | IC50 at 80 h [2] [µM] | IC50 at 24 h [3] [µM] | IC50 at 24 h [4] [µM] | neurite growth (uninduced cells 100%; induced untreated 89%) [5] [%] | ROS level (uninduced cells 100%; induced untreated 110%) [6] [%] | caspase 3 activity (uninduced cells 100%; induced untreated 129%) [7] [%]
1 | 105-110% |  | CCOC(=O)[C@@H]1OC(O)[C@H](C)[C@@H](c2ccc(OC)cc2)[C@@H]1[N+](=O)[O-] (some centres unmarked) [compound (A)] | 32 | 267 | 128 |  |  | 
2 |  | 111 | CCOC(=O)[C@@H]1OC(O)[C@H](C)[C@@H](c2cccs2)[C@@H]1[N+](=O)[O-] (some centres unmarked) [compound (B)] | 42 | 273 | 135 |  |  | 
3 | 106-113% |  | CCOC(=O)[C@@H]1OC(O)[C@H](C)[C@@H](c2ccccc2)[C@@H]1[N+](=O)[O-] (some centres unmarked) [compound (C)] | 42 | 275 | 135 |  |  | 
4 |  | 108 | Nc1c(/N=N/c2ccc(-c3ccc(/N=N/c4cc(S(=O)(=O)O)c5ccccc5c4N)cc3)cc2)cc(S(=O)(=O)O)c2ccccc12 [congo red] | 60 |  |  | 99 | 93 | 63
